Assay results reported in BindingDB's records for doi:10.1016/j.bmc.2010.04.075 (Chungnam National University, 2010).

Test: Inhibition of IL5-mediated proliferation of mouse Y16 cells by WST1 assay

| Structure (SMILES) | IC50 [µM] |
| --- | --- |
| COc1ccc(-c2coc3cccc(OCC4CCCCC4)c3c2=O)cc1OC [5-(Cyclohexylmethoxy)-3-(3,4-dimethoxyphenyl)-4Hchromen-4-one] | > 30 |
| COc1cc(-c2coc3cccc(OCC4CCCCC4)c3c2=O)ccc1O [5-(Cyclohexylmethoxy)-3-(4-hydroxy-3-methoxyphenyl)-4H-chromen-4-one] | > 30 |
| COc1ccc(-c2coc3cccc(OCC4CCCCC4)c3c2=O)cc1 [5-(Cyclohexylmethoxy)-3-(4-methoxyphenyl)-4H-chromen-4-one] | > 30 |
| COCOc1ccc(-c2coc3cccc(OCC4CCCCC4)c3c2=O)cc1 [5-(Cyclohexylmethoxy)-3-[4-(methoxymethoxy)phenyl]-4H-chromen-4-one] | > 30 |
| O=C1/C(=C/c2ccccc2)Oc2cccc(OCC3CCCCC3)c21 [(Z)-2-(Benzylidene)-4-(cyclohexylmethoxy)benzofuran-3(2H)-one] | > 30 |
| O=Cc1ccc(/C=C2\Oc3cccc(OCC4CCCCC4)c3C2=O)cc1 [(Z)-4-{[4-(Cyclohexylmethoxy)-3-oxobenzofuran-2(3H)-ylidene]methyl}benzaldehyde] | > 30 |
| COC(=O)c1ccc(/C=C2\Oc3cccc(OCC4CCCCC4)c3C2=O)cc1 [Methyl(Z)-4-[4-(cyclohexylmethoxy)-3-oxobenzofuran-2(3H)-ylidene]methylbenzoate] | > 30 |

The next lines start with the values.

| IC50 [µM] | Structure (SMILES) |
| --- | --- |
| 17.4 | COc1cc(-c2coc3cccc(OCC4CCCCC4)c3c2=O)ccc1OCc1ccccc1 [3-(4-(Benzyloxy)-3-methoxyphenyl)-5-(cyclohexylmethoxy)-4H-chromen-4-one] |
| > 30 | CCc1ccc(-c2coc3cccc(OCC4CCCCC4)c3c2=O)cc1 [5-(Cyclohexylmethoxy)-3-(4-ethylphenyl)-4H-chromen-4-one] |
| > 30 | O=C1/C(=C/c2ccc(Cl)cc2)Oc2cccc(OCC3CCCCC3)c21 [(Z)-2-(4-Chlorobenzylidene)-4-(cyclohexylmethoxy)benzofuran-3(2H)-one] |
| > 30 | O=C1/C(=C/c2ccc([N+](=O)[O-])cc2)Oc2cccc(OCC3CCCCC3)c21 [(Z)-4-(Cyclohexylmethoxy)-2-(4-nitrobenzylidene)benzofuran-3(2H)-one] |
| > 30 | CCc1ccc(/C=C2\Oc3cccc(OCC4CCCCC4)c3C2=O)cc1 [(Z)-4-(cyclohexylmethoxy)-2-(4-ethylbenzylidene)benzofuran-3(2H)-one] |
